Assay results taken from PubChem BioAssay AID1963438 (Molecular Pharmacology Branch, DTP, NCI, 2024).
pIC50: −log10 of the molar value. “And” between values parts separate entries of the source, which are not always exact repeats. Equal entries are not always repeated.

Tested on: NCI-H510 multicellular tumor spheroid growth, % test/control
Assay: Anticancer human tumor NCI-H510 cell line growth inhibition [Asc];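 further: spheroids exposed to agents for 7 days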;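 on viability, T/C: 100% = DMSO vehicle control wells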
Conditions: for viability, T/C: stronger effect = lower value
Summary of the method: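 Tumor cells were grown as complex spheroids with human endothelial cells (HUVEC) and human mesenchymal stem cells as stroma. Agents were tested alone and in combination, in half-log steps down from the clinical Cmax, or from 10 microM where Cmax was unknown.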

[1] = curve of first compound, second compound 0.03 µM
[2] = curve of first compound, second compound 0.0949 µM
[3] = curve of first compound, second compound 0.3 µM
[4] = curve of first compound, second compound 0.949 µM
[5] = curve of first compound, second compound 3 µM
[6] = second compound 0.03 µM, first compound 0.00316 µM
[7] = second compound 0.03 µM, first compound 0.01 µM
[8] = second compound 0.03 µM, first compound 0.0316 µM
[9] = second compound 0.03 µM, first compound 0.1 µM
[10] = second compound 0.0949 µM, first compound 0.00316 µM
[11] = second compound 0.0949 µM, first compound 0.01 µM
[12] = second compound 0.0949 µM, first compound 0.0316 µM
[13] = second compound 0.0949 µM, first compound 0.1 µM
[14] = second compound 0.3 µM, first compound 0.00316 µM
[15] = second compound 0.3 µM, first compound 0.01 µM
[16] = second compound 0.3 µM, first compound 0.0316 µM
[17] = second compound 0.3 µM, first compound 0.1 µM
[18] = second compound 0.949 µM, first compound 0.00316 µM
[19] = second compound 0.949 µM, first compound 0.01 µM
[20] = second compound 0.949 µM, first compound 0.0316 µM
[21] = second compound 0.949 µM, first compound 0.1 µM
[22] = second compound 3 µM, first compound 0.00316 µM
[23] = second compound 3 µM, first compound 0.01 µM
[24] = second compound 3 µM, first compound 0.0316 µM
[25] = second compound 3 µM, first compound 0.1 µM

For CNC(C)C(=O)NC1CN(S(=O)(=O)c2cccc(S(=O)(=O)N3CCC4CCC(C(=O)NC(c5ccccc5)c5ccccc5)N4C(=O)C(NC(=O)C(C)NC)C3)c2)CCC2CCC(C(=O)NC(c3ccccc3)c3ccccc3)N2C1=O (centres undefined), which viability, T/C (compound 0.00316 µM) is on record?
The viability, T/C was 103% and 100% and 104%.

What about the viability, T/C (compound 0.01 µM) of the same compound?
Its viability, T/C is 106% [middle of 14 runs].

And the viability, T/C (compound 0.0316 µM)?
Its viability, T/C is 102% [middle of 14 runs].

What about the viability, T/C (compound 0.1 µM) of the same compound?
Its viability, T/C is 103% [middle of 14 runs].

What about the pIC50 (compound alone, run of 10/24/2022) of the same compound?
Its pIC50 is less than 6.00.

And the pIC50 (compound alone, run of 11/15/2022)?
Its pIC50 is less than 6.00.

And the pIC50 (curve of compound)?
The pIC50 was less than 6.00.

What does the source list for Cn1ncnc1[C@H]1c2n[nH]c(=O)c3cc(F)cc(c23)N[C@@H]1c1ccc(F)cc1 + CCN1C(C(=O)NC23CCC(C(=O)O)(CC2)CC3)C(c2cccc(Cl)c2F)C2(C(=O)Nc3cc(Cl)ccc32)C12CCCCC2?
pIC50 [1]: 8.11; pIC50 [2]: 8.04; pIC50 [3]: 7.81; pIC50 [4]: 7.98; pIC50 [5]: 7.87; viability, T/C (second compound 0.03 µM, first compound 0.000316 µM): 114%; viability, T/C (second compound 0.03 µM, first compound 0.001 µM): 93.8%; viability, T/C [6]: 77.3%; viability, T/C [7]: 49.5%; viability, T/C [8]: 6.92%; viability, T/C [9]: 18.1%; viability, T/C (second compound 0.0949 µM, first compound 0.000316 µM): 105%; viability, T/C (second compound 0.0949 µM, first compound 0.001 µM): 97.6%; viability, T/C [10]: 95.4%; viability, T/C [11]: 45.4%; viability, T/C [12]: 14.7%; viability, T/C [13]: 10.9%; viability, T/C (second compound 0.3 µM, first compound 0.000316 µM): 104%; viability, T/C (second compound 0.3 µM, first compound 0.001 µM): 128%; viability, T/C [14]: 96.6%; viability, T/C [15]: 75.8%; viability, T/C [16]: 9.76%; viability, T/C [17]: 5.7%; viability, T/C (second compound 0.949 µM, first compound 0.000316 µM): 92.5%; viability, T/C (second compound 0.949 µM, first compound 0.001 µM): 118%; viability, T/C [18]: 100%; viability, T/C [19]: 50.9%; viability, T/C [20]: 13.4%; viability, T/C [21]: 7.16%; viability, T/C (second compound 3 µM, first compound 0.000316 µM): 109%; viability, T/C (second compound 3 µM, first compound 0.001 µM): 88.8%; viability, T/C [22]: 102%; viability, T/C [23]: 64%; viability, T/C [24]: 6.31%; viability, T/C [25]: 10.2%

How did the pIC50 [1] turn out when O=C(c1ccc(F)c(F)c1Nc1ccc(I)cc1F)N1CC(O)([C@@H]2CCCCN2)C1 + CCN1C(C(=O)NC23CCC(C(=O)O)(CC2)CC3)C(c2cccc(Cl)c2F)C2(C(=O)Nc3cc(Cl)ccc32)C12CCCCC2 was run?
Its pIC50 is less than 6.00.

And the pIC50 [2]?
The pIC50 was less than 6.00.

And the pIC50 [3]?
Its pIC50 is less than 6.00.

And the pIC50 [4]?
The pIC50 was less than 6.00.

What about the pIC50 [5] of the same compound?
Its pIC50 is less than 6.00.

What about the viability, T/C [6] of the same compound?
Its viability, T/C is 95.8%.

And the viability, T/C [7]?
Its viability, T/C is 126%.

And the viability, T/C [8]?
Its viability, T/C is 130%.

What about the viability, T/C [9] of the same compound?
The viability, T/C was 121%.

And the viability, T/C (second compound 0.03 µM, first compound 0.316 µM)?
The viability, T/C was 103%.

And the viability, T/C (second compound 0.03 µM, first compound 1 µM)?
The viability, T/C was 103%.

And the viability, T/C [10]?
The viability, T/C was 127%.

What about the viability, T/C [11] of the same compound?
Its viability, T/C is 124%.

What about the viability, T/C [12] of the same compound?
Its viability, T/C is 105%.

And the viability, T/C [13]?
Its viability, T/C is 95.7%.

And the viability, T/C (second compound 0.0949 µM, first compound 0.316 µM)?
The viability, T/C was 126%.

And the viability, T/C (second compound 0.0949 µM, first compound 1 µM)?
Its viability, T/C is 116%.

What about the viability, T/C [14] of the same compound?
Its viability, T/C is 122%.

What about the viability, T/C [15] of the same compound?
Its viability, T/C is 111%.

And the viability, T/C [16]?
The viability, T/C was 120%.

And the viability, T/C [17]?
Its viability, T/C is 119%.

What about the viability, T/C (second compound 0.3 µM, first compound 0.316 µM) of the same compound?
The viability, T/C was 117%.

What about the viability, T/C (second compound 0.3 µM, first compound 1 µM) of the same compound?
Its viability, T/C is 91.5%.

What about the viability, T/C [18] of the same compound?
The viability, T/C was 120%.

What about the viability, T/C [19] of the same compound?
Its viability, T/C is 132%.

And the viability, T/C [20]?
The viability, T/C was 132%.

What about the viability, T/C [21] of the same compound?
Its viability, T/C is 131%.

What about the viability, T/C (second compound 0.949 µM, first compound 0.316 µM) of the same compound?
Its viability, T/C is 118%.

What about the viability, T/C (second compound 0.949 µM, first compound 1 µM) of the same compound?
The viability, T/C was 116%.

What about the viability, T/C [22] of the same compound?
Its viability, T/C is 134%.

And the viability, T/C [23]?
The viability, T/C was 160%.

And the viability, T/C [24]?
Its viability, T/C is 140%.

What about the viability, T/C [25] of the same compound?
Its viability, T/C is 114%.

And the viability, T/C (second compound 3 µM, first compound 0.316 µM)?
The viability, T/C was 124%.

What about the viability, T/C (second compound 3 µM, first compound 1 µM) of the same compound?
Its viability, T/C is 127%.

COc1c(OCCCN2CCOCC2)ccc2c3n(c(=NC(=O)c4cnc(N)nc4)nc12)CCN3 was tested. Which viability, T/C (compound 0.00316 µM) did it give?
Its viability, T/C is 114% and 91.5% and 87.9%.

What about the viability, T/C (compound 0.01 µM) of the same compound?
Its viability, T/C is 97.9% and 112% and 97.6%.

What about the viability, T/C (compound 0.0316 µM) of the same compound?
The viability, T/C was 93.2% and 99.9% and 112%.

What about the viability, T/C (compound 0.1 µM) of the same compound?
Its viability, T/C is 93.2% and 52.7% and 108%.

And the viability, T/C (compound 0.316 µM)?
The viability, T/C was 110% and 89.6% and 115%.

What about the viability, T/C (compound 1 µM) of the same compound?
Its viability, T/C is 81.5% and 92.5% and 114%.

What about the pIC50 (curve of compound) of the same compound?
The pIC50 was less than 6.00.

Cc1nc(N2CCC3(CC2)COC(C)C3N)c(CO)nc1Sc1ccnc(N)c1Cl (centres undefined) + CCN1C(C(=O)NC23CCC(C(=O)O)(CC2)CC3)C(c2cccc(Cl)c2F)C2(C(=O)Nc3cc(Cl)ccc32)C12CCCCC2 was tested. Which pIC50 [1] did it give?
The pIC50 was less than 5.52.

What about the pIC50 [2] of the same compound?
The pIC50 was less than 5.52.

What about the pIC50 [3] of the same compound?
Its pIC50 is less than 5.52.

What about the pIC50 [4] of the same compound?
The pIC50 was less than 5.52.

And the pIC50 [5]?
Its pIC50 is less than 5.52.

And the viability, T/C (second compound 0.03 µM, first compound 0.00949 µM)?
Its viability, T/C is 103%.

What about the viability, T/C (second compound 0.03 µM, first compound 0.03 µM) of the same compound?
Its viability, T/C is 119%.

What about the viability, T/C (second compound 0.03 µM, first compound 0.0949 µM) of the same compound?
The viability, T/C was 119%.

And the viability, T/C (second compound 0.03 µM, first compound 0.3 µM)?
Its viability, T/C is 119%.

What about the viability, T/C (second compound 0.03 µM, first compound 0.949 µM) of the same compound?
Its viability, T/C is 114%.

What about the viability, T/C (second compound 0.03 µM, first compound 3 µM) of the same compound?
Its viability, T/C is 95.9%.

And the viability, T/C (second compound 0.0949 µM, first compound 0.00949 µM)?
The viability, T/C was 110%.

And the viability, T/C (second compound 0.0949 µM, first compound 0.03 µM)?
The viability, T/C was 91.5%.

What about the viability, T/C (second compound 0.0949 µM, first compound 0.0949 µM) of the same compound?
The viability, T/C was 123%.

And the viability, T/C (second compound 0.0949 µM, first compound 0.3 µM)?
The viability, T/C was 102%.

What about the viability, T/C (second compound 0.0949 µM, first compound 0.949 µM) of the same compound?
The viability, T/C was 104%.

And the viability, T/C (second compound 0.0949 µM, first compound 3 µM)?
The viability, T/C was 84.3%.

And the viability, T/C (second compound 0.3 µM, first compound 0.00949 µM)?
The viability, T/C was 101%.

And the viability, T/C (second compound 0.3 µM, first compound 0.03 µM)?
Its viability, T/C is 116%.

What about the viability, T/C (second compound 0.3 µM, first compound 0.0949 µM) of the same compound?
Its viability, T/C is 104%.

What about the viability, T/C (second compound 0.3 µM, first compound 0.3 µM) of the same compound?
The viability, T/C was 101%.

What about the viability, T/C (second compound 0.3 µM, first compound 0.949 µM) of the same compound?
The viability, T/C was 110%.

What about the viability, T/C (second compound 0.3 µM, first compound 3 µM) of the same compound?
Its viability, T/C is 90.6%.

What about the viability, T/C (second compound 0.949 µM, first compound 0.00949 µM) of the same compound?
The viability, T/C was 116%.

What about the viability, T/C (second compound 0.949 µM, first compound 0.03 µM) of the same compound?
The viability, T/C was 105%.

And the viability, T/C (second compound 0.949 µM, first compound 0.0949 µM)?
Its viability, T/C is 98.5%.

What about the viability, T/C (second compound 0.949 µM, first compound 0.3 µM) of the same compound?
The viability, T/C was 96%.

What about the viability, T/C (second compound 0.949 µM, first compound 0.949 µM) of the same compound?
Its viability, T/C is 91.9%.

And the viability, T/C (second compound 0.949 µM, first compound 3 µM)?
The viability, T/C was 102%.

And the viability, T/C (second compound 3 µM, first compound 0.00949 µM)?
The viability, T/C was 99.9%.

What about the viability, T/C (second compound 3 µM, first compound 0.03 µM) of the same compound?
Its viability, T/C is 97.5%.

And the viability, T/C (second compound 3 µM, first compound 0.0949 µM)?
The viability, T/C was 102%.

What about the viability, T/C (second compound 3 µM, first compound 0.3 µM) of the same compound?
Its viability, T/C is 120%.

And the viability, T/C (second compound 3 µM, first compound 0.949 µM)?
Its viability, T/C is 88.2%.

And the viability, T/C (second compound 3 µM, first compound 3 µM)?
The viability, T/C was 115%.
